{"source": "patent US11020395B2", "about": "“Cycloalkyl substituted triazole compounds as agonists of the APJ receptor” (AMGEN INC., priority 2016, dated 2021)"}
{"biological_target": "human APJ receptor (Homo sapiens (Human), UniProt P35414)", "sequence (P35414 whole entry)": "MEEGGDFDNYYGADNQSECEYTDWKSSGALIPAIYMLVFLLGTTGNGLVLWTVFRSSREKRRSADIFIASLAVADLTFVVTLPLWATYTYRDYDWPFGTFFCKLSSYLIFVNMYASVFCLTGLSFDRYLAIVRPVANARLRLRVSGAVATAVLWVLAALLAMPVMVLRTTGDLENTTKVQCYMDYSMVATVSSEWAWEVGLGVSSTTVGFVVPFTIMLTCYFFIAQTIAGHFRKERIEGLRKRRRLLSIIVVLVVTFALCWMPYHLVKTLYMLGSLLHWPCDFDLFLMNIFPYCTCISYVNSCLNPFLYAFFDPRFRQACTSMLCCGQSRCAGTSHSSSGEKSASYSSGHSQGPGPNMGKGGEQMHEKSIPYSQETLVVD", "experiment": "[35S]GTPγS binding assay on membranes from CHO cells stably expressing human APJ receptor", "assay_type": "biochemical", "conditions": "[35S]GTPγS SPA, read-out: Activity hAPJ SPA EC50 IP", "method": "[^35S]GTPγS Binding The human APJ receptor was cloned by polymerase chain reaction and the gene encoding the receptor was subcloned in pFLAG-CMV™-3 expression vector (Sigma, Saint Louis, Mo. USA) in-house at Amgen. A GTPγS binding assay was performed on membranes prepared from CHO cells stably expressing human APJ receptor. The optimum experimental conditions for the concentrations of GDP, MgCl2, and NaCl in the assay buffer were initially determined. […] Incubation was at RT for 90 min and the microplate was read using a ViewLux™ ultra HTS Microplate Imager (PerkinElmer, Inc.). All the results presented are means of several independent experiments and analyzed by non-linear regression methods using the commercially available program Prism (GraphPad, San Diego, Calif.) providing the EC50 values detailed in Table 25.", "units": {"EC50": "nM"}}
{"compound": "(1R,2S)-1-(5-chloropyrimidin-2-yl)-N-(4-(2,6-dimethoxyphenyl)-5-((R)-2,2-dimethylcyclopropyl)-4H-1,2,4-triazol-3-yl)-1-methoxypropane-2-sulfonamide or (1R,2S)-1-(5-chloropyrimidin-2-yl)-N-(4-(2,6-dimethoxyphenyl)-5-((S)-2,2-dimethylcyclopropyl)-4H-1,2,4-triazol-3-yl)-1-methoxypropane-2-sulfonamide [Example 22.0]", "EC50": 0.29}
{"compound": "COc1ncnc(OC)c1-n1c(NS(=O)(=O)[C@@H](C)[C@H](OC)c2ncc(Cl)cn2)nnc1C1CC(Cl)(Cl)C1", "note": "[Example 203.0, (1R,2S)-1-(5-chloropyrimidin-2-yl)-N-(5-(3,3-dichlorocyclobutyl)-4-(4,6-dimethoxypyrimidin-5-yl)-4H-1,2,4-triazol-3-yl)-1-methoxypropane-2-sulfonamide]", "EC50": 10}
{"compound": "CO[C@H](c1ncc(Cl)cn1)[C@H](C)S(=O)(=O)Nc1nnc(C2CCC2)n1C1CCOCC1", "note": "[Example 97.0, (1R,2S)-1-(5-chloropyrimidin-2-yl)-N-(5-cyclobutyl-4-(tetrahydro-2H-pyran-4-yl)-4H-1,2,4-triazol-3-yl)-1-methoxypropane-2-sulfonamide]", "EC50": 370}
{"compound": "(2S,3R)-3-(5-chloropyrimidin-2-yl)-N-(4-(2,6-dimethoxyphenyl)-5-((S)-spiro[2.2]pentan-1-yl)-4H-1,2,4-triazol-3-yl)butane-2-sulfonamide or (2S,3R)-3-(5-chloropyrimidin-2-yl)-N-(4-(2,6-dimethoxyphenyl)-5-((R)-spiro[2.2]pentan-1-yl)-4H-1,2,4-triazol-3-yl)butane-2-sulfonamide [Example 218.0]", "EC50": 1.1}
{"compound": "COc1cccc(OC)c1-n1c(NS(=O)(=O)[C@@H](C)[C@H](OC)c2ncc(Cl)cn2)nnc1[C@H]1C[C@@H](CO)C1", "note": "(single isomer, unassigned) [Example 123.0, (1R,2S)-1-(5-chloro-2-pyrimidinyl)-N-(4-(2,6-dimethoxyphenyl)-5-(cis-3-(hydroxymethyl)cyclobutyl)-4H-1,2,4-triazol-3-yl)-1-methoxy-2-propanesulfonamide or (1R,2S)-1-(5-chloro-2-pyrimidinyl)-N-(4-(2,6-dimethoxyphenyl)-5-(trans-3-(hydroxymethyl)cyclobutyl)-4H-1,2,4-triazol-3-yl)-1-methoxy-2-propanesulfonamide]", "EC50": 5.1}
{"compound": "COCC(COC)n1c(NS(=O)(=O)[C@@H](C)[C@H](OC)c2ncc(Cl)cn2)nnc1[C@H]1C[C@H](CO)C1", "note": "(single isomer, unassigned) [Example 131.0, (1R,2S)-1-(5-chloropyrimidin-2-yl)-N-(4-(1,3-dimethoxypropan-2-yl)-5-((1r,3S)-3-(hydroxymethyl)cyclobutyl)-4H-1,2,4-triazol-3-yl)-1-methoxypropane-2-sulfonamide or (1R,2S)-1-(5-chloropyrimidin-2-yl)-N-(4-(1,3-dimethoxypropan-2-yl)-5-((1s,3R)-3-(hydroxymethyl)cyclobutyl)-4H-1,2,4-triazol-3-yl)-1-methoxypropane-2-sulfonamide]", "EC50": 110}
{"compound": "COc1cccc(OC)c1-n1c(NS(=O)(=O)[C@@H](C)[C@H](OC)c2ncc(Cl)cn2)nnc1[C@H]1C[C@H](C)C1", "note": "[Example 148.0, (1R,2S)-1-(5-chloropyrimidin-2-yl)-N-(4-(2,6-dimethoxyphenyl)-5-((1r,3S)-3-methylcyclobutyl)-4H-1,2,4-triazol-3-yl)-1-methoxypropane-2-sulfonamide and (1R,2S)-1-(5-chloropyrimidin-2-yl)-N-(4-(2,6-dimethoxyphenyl)-5-((1r,3R)-3-methylcyclobutyl)-4H-1,2,4-triazol-3-yl)-1-methoxypropane-2-sulfonamide]", "EC50": 1.1}
{"compound": "COc1ncnc(OC)c1-n1c(NS(=O)(=O)[C@@H](C)[C@H](C)c2ncc(C)cn2)nnc1C1CCCCC1", "note": "[Example 5.0, (2S,3R)-N-(5-cyclohexyl-4-(4,6-dimethoxy-5-pyrimidinyl)-4H-1,2,4-triazol-3-yl)-3-(5-methyl-2-pyrimidinyl)-2-butanesulfonamide]", "EC50": 9.4}
